Results taken from ChEMBL document CHEMBL1201862, “PubChem BioAssay data set” (2004).
The source made the active and inactive calls. Rule as the data show it, for most assays here: actives have a measured EC50 and inactives only a lower limit.

Key:
[1] = Luminescence Cell-Based Dose Confirmation HTS to Identify Inhibitors of Platelet Dense Granule Release. [Related pubchem assays: 1663 (Primary HTS), 1678 (Summary of Project)]; format: functional
[2] = molecular target: Luciferin 4-monooxygenase (Photinus pyralis, UniProt P08659); assay: inhibition of purified Photinus pyralis luciferase – biochemical, luminescence, dose response (AID 1891)
[3] = Luminescence Cell-Based Dose Response HTS to Identify Activators of Luciferase Translation or Activity in H4 […] Cells. [Related pubchem assays: 1829 (Project Summary), 1814 (Primary HTS)]; format: functional
[4] = Luminescence Cell-Based Dose Confirmation HTS to Identify Activators of 5'UTR Stem-Loop Driven Alpha-Synuclein mRNA Translation in H4 Neuroglioblastoma Cells. [Related pubchem assays: 1829 (Project Summary), 1814 (Primary HTS)]; format: functional
[5] = test system: H4; assay: Luminescence Cell-Based Dose Response HTS to Identify Activators of 5'UTR Stem-Loop Driven Prion Protein mRNA Translation in H4 Neuroglioblastoma Cells. [Related pubchem assays: 1829 (Project Summary), 1814 (Primary HTS)]; format: functional; settings: Homo sapiens
[6] = molecular target: T1, Protein skinhead-1 (Caenorhabditis elegans, UniProt P34707); format: functional
T1 sequence (P34707 whole entry): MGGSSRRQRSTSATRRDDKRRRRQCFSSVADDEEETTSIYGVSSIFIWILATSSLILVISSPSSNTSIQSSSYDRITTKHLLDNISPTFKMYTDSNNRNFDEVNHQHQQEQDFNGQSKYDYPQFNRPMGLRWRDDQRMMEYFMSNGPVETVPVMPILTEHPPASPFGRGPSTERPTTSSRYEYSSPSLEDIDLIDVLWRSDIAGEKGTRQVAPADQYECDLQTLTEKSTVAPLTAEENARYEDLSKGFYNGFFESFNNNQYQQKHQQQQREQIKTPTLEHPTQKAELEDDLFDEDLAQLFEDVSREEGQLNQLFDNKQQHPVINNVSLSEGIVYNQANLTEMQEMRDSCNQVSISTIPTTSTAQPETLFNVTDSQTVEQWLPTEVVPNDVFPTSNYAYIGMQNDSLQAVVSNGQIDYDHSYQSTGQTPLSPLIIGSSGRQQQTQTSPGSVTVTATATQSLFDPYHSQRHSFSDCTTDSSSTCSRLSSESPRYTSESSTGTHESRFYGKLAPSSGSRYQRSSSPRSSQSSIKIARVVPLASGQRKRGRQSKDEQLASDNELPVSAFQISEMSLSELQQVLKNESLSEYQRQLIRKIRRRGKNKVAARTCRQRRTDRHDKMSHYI

[7] = viability of uninfected HEp-2 cells – cell-based, HTS, cytotoxicity control for RSV inhibitor project, dose response (AID 2410); format: functional; settings: human respiratory syncytial virus
[8] = molecular target: Nonstructural protein 1 (Influenza A virus, UniProt Q194T2); format: functional, Influenza A virus (A/California/07/2009(H1N1))
[9] = NIH-3T3 fibroblast cytotoxicity, dose response, cytotoxicity control, cell-based, fluorescence, Alamar Blue, secondary assay (AID 2327); format: functional;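 also: NIH-3T3 mouse fibroblasts cultured with fluconazole at 8 µg/mL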
[10] = alpha-synuclein stem-loop luciferase translation blockers – H4 neuroglioma cells, luminescence, confirmation (AID 1988); format: functional, cell-based
[11] = Luminescence Cell-Based Dose Response HTS to Identify Inhibitors of 5'UTR Stem-Loop Driven Prion Protein mRNA Translation in H4 Neuroglioblastoma Cells. [Related pubchem assays: 1827 (Project Summary), 1813 (Primary HTS)]; format: functional
[12] = luciferase reporter signal suppression in cells – H4 neuroglioma cells, luminescence, dose response (AID 1990); format: functional, cell-based
[13] = Trypanosoma cruzi growth suppression in host cells – NIH3T3 host cells, beta-gal luminescence, confirmation (AID 2044); format: functional, cell-based;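 also: intracellular parasites grown in NIH/3T3 mouse fibroblasts as host cells; luminescent beta-galactosidase reporter signal from transgenic T. cruzi replicating inside host cells; inhibitors lower the luminescence signal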
[14] = molecular target: T2, Rac GTPase-activating protein 1 (Homo sapiens, UniProt Q9H0H5); assay: blockers of MgcRacGAP-driven Rac1 GTP hydrolysis – biochemical, ADP Hunter fluorescence, primary and confirmatory, confirmation (AID 624330); format: functional
T2 sequence (Q9H0H5 whole entry): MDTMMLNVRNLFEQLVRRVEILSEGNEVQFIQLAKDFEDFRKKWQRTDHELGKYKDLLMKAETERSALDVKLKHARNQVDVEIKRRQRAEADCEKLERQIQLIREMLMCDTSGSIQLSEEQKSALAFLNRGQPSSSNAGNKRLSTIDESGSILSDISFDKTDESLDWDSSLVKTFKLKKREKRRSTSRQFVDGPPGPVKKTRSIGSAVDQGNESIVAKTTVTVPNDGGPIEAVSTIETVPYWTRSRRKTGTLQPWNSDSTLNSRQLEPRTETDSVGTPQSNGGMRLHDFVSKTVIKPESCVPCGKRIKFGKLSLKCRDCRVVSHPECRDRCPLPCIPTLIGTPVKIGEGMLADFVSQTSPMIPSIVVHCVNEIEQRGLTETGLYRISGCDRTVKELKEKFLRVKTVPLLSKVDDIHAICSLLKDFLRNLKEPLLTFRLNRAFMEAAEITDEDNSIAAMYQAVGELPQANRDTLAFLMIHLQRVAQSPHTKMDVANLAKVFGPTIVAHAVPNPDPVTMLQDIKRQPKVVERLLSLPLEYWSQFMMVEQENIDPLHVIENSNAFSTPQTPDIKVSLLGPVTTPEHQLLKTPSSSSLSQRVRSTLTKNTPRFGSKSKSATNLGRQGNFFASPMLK

[15] = NIH3T3 cell viability loss – ATP luminescence, mouse fibroblasts, counter-screen, dose response (AID 2010); format: functional, cell-based;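 also: cells exposed to compound for about 90 hours before reading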

## O=C(Nc1ccccc1)c1cnc2ccccc2n1
[1]
  EC50: > 112 µM (not active)
[2]
  EC50: > 112 µM (not active)

## COc1ccc2nc(NNC(=O)c3cc(=O)c4ccccc4o3)sc2c1
[3]
  EC50: 24.4 µM (active)
[4]
  EC50: 40.6 µM (active)
[5]
  EC50: 17.4 µM (active)

## O=C(NCCOc1ccc(Cl)cc1)c1ccc2ccccc2n1
[6]
  IC50: > 100 µM (inactive)
[7]
  CC50: 20.9 µM (active)

## O=C1c2ccccc2-c2onc3c(N4CCN(CCO)CC4)cc(N4CCN(C(=O)c5ccco5)CC4)c1c23
[8]
  IC50: 9.93 µM (active)

## CCCc1ccc(Oc2cc(Cl)nc(N)n2)cc1
[3]
  EC50: 11.8 µM (active)
[4]
  EC50: 8.77 µM (active)
[5]
  EC50: 72 µM (active)

## Cc1ccc(S(=O)(=O)NCC2CCC(C(=O)NCc3ccc4c(c3)OCO4)CC2)cc1 (centres undefined)
[1]
  EC50: > 112 µM (not active)
[2]
  EC50: > 112 µM (not active)

## c1ccc(NCc2nc(-c3ccccc3)no2)cc1
[3]
  EC50: 21.4 µM (active)
[4]
  EC50: 3.25 µM (active)
[5]
  EC50: 15.8 µM (active)

## COc1ccc(-c2n[nH]c(S)n2)cc1
[1]
  EC50: > 112 µM (not active)

## Cc1cc(C)cc(OCc2ccc(C(=O)N3N=C(C(F)F)CC3(O)C(F)F)o2)c1 (centres undefined)
[9]
  EC50: 120 µM (active)

## FCCCOc1ccc(-c2nccc(-c3ccccn3)n2)cc1
[6]
  IC50: 17.9 µM (active)

## O=C1C[C@H]2[C@H](CO)[C@@H](OC(=O)c3ccc(-c4ccccc4)cc3)C[C@H]2O1
[3]
  EC50: 16.9 µM (active)
[4]
  EC50: 12.8 µM (active)
[5]
  EC50: 69.8 µM (active)

## OC1CN=C2C=CC=CN2C1 (centres undefined)
[1]
  EC50: > 112 µM (not active)
[2]
  EC50: > 112 µM (not active)

## CC(=O)Nc1cccc(Oc2cc(C#N)c(C#N)cc2N2CCCCCC2)c1
[10]
  EC50: > 120 µM (not active)
[11]
  EC50: > 120 µM (not active)
[12]
  EC50: 14.6 µM (active)

## NC(Cc1nc(-c2ccc(Br)cc2)cs1)=NO
[9]
  EC50: > 150 µM (inactive)

## COc1cc(NC(=O)CN2C(=O)C(c3ccccc3)=NC23CCCCCC3)cc(OC)c1
[1]
  EC50: > 112 µM (not active)
[2]
  EC50: > 112 µM (not active)

## COc1ccc(C(c2sc3nc(C)nn3c2O)N2CCCCC2)cc1 (centres undefined)
[1]
  EC50: > 112 µM (not active)
[2]
  EC50: > 112 µM (not active)

## CCOc1ccc2nc(NC(=O)CSc3nnc(-c4ccncc4)n3CC3CCCO3)sc2c1 (centres undefined)
[3]
  EC50: 8.04 µM (active)
[4]
  EC50: 7.45 µM (active)
[5]
  EC50: 11.8 µM (active)

## CC(C)CNc1nc(N)c([N+](=O)[O-])c(NCc2ccccc2)n1
[10]
  EC50: 22.7 µM (active)
[11]
  EC50: > 120 µM (not active)
[12]
  EC50: 16.3 µM (active)

## CN1CCc2c(sc3c2C(=O)NC(c2ccccc2)N3)C1 (centres undefined)
[6]
  IC50: > 100 µM (inactive)

## CCOC(=O)C1(C)C(N=Nc2ccc(Cl)cc2)=C(O)C(=O)N1c1ccccc1 (centres undefined)
[6]
  IC50: > 100 µM (inactive)

## Cn1ncc2cc(NC(=S)NC(=O)c3ccccc3)ccc21
[3]
  EC50: 21 µM (active)
[4]
  EC50: 13.8 µM (active)
[5]
  EC50: 83 µM (active)

## Cc1nc(S)c(C#N)c(C)c1CCC#N
[1]
  EC50: > 112 µM (not active)

## CONC=NC(=O)NOCc1ccc(Cl)cc1Cl
[1]
  EC50: > 112 µM (not active)
[2]
  EC50: > 112 µM (not active)

## CC(C(=O)N(C)Cc1ccccc1)N1CCN(C/C=C/c2ccccc2)CC1 (centres undefined)
[13]
  EC50: 164 nM (active)
[14]
  IC50: 80.2 µM (active)
[15]
  EC50: > 30 µM (not active)

## Cc1ccccc1NC(=O)CSc1nn2c(=O)c(C)nnc2s1
[8]
  IC50: 10.5 µM (active)

## Fc1ccc(Nc2cccc3nccnc23)cc1
[6]
  IC50: 34.1 µM (active)

## COc1ccc(C2CC(c3ccc4ccccc4c3)=NN2C(=O)CN2CCC(C(N)=O)CC2)cc1 (centres undefined)
[3]
  EC50: 18.1 µM (active)
[4]
  EC50: 15.6 µM (active)
[5]
  EC50: 16.5 µM (active)

## Nc1ccc(N2CCOCC2)c(Cl)c1
[14]
  IC50: 38.2 µM (active)

## COc1ccccc1NC(=O)Nc1nc(CC(=O)Nc2ccc(N(C)C)cc2)cs1
[8]
  IC50: 26.9 µM (active)

## O=C(Nc1ccccc1Oc1ccccc1)c1cccs1
[6]
  IC50: > 100 µM (inactive)

## C/C(=C\c1ccco1)CN1CCC(N2CCC(C(=O)N3CCOCC3)CC2)CC1
[3]
  EC50: 15.5 µM (active)
[4]
  EC50: 11.2 µM (active)
[5]
  EC50: > 120 µM (not active)

## C/C=C/c1ccc(OCCCCN2CCN(CC)CC2)c(OC)c1
[14]
  IC50: 82 µM (active)

## Cc1cccc(N2CCN(S(=O)(=O)c3ccc4c(c3)C(C)(C)C(=O)N4C)CC2C)c1 (centres undefined)
[1]
  EC50: > 112 µM (not active)
[2]
  EC50: > 112 µM (not active)

## Cc1ccc(C(=O)CC(=O)c2ccccc2)cc1
[3]
  EC50: 1.75 µM (active)
[4]
  EC50: 5.35 µM (active)
[5]
  EC50: > 120 µM (not active)

## CCCCn1c(N)c(N(CCC(C)C)C(=O)C2CC(=O)N(c3ccc(OC)cc3OC)C2)c(=O)[nH]c1=O (centres undefined)
[1]
  EC50: > 112 µM (not active)
[2]
  EC50: > 112 µM (not active)

## CC(C)c1nnc(NC(=O)COc2ccccc2[N+](=O)[O-])s1
[3]
  EC50: 67 µM (active)
[4]
  EC50: 0.112 µM (active)
[5]
  EC50: 13.6 µM (active)

## CSc1nc(N(C)NC(=O)c2ccc(F)cc2)c2ccccc2n1
[10]
  EC50: < 0.195 µM (active)
[11]
  EC50: 0.258 µM (active)
[12]
  EC50: 10.6 µM (active)

## O=C(CSc1nnc2ccccn12)N1CCc2ccccc2C1
[3]
  EC50: 38.9 µM (active)
[4]
  EC50: 13.1 µM (active)
[5]
  EC50: 78 µM (active)

## CCN(CC(=O)Nc1cc(Cl)ccc1OC)CC(=O)NC1CCS(=O)(=O)C1 (centres undefined)
[14]
  IC50: 95.7 µM (active)

## CCCn1c(N)c(C(c2ccc(OC)cc2)N2CCN(c3ccccc3)CC2)c(=O)[nH]c1=O (centres undefined)
[6]
  IC50: > 100 µM (inactive)

## CN(C)c1ccc(C=NN2CCCCCC2)cc1
[8]
  IC50: 48.1 µM (active)

## O=C(Sc1ccc(Cl)cc1)c1ccccn1
[6]
  IC50: 44.5 µM (active)

## COc1cc2sc3cc(NCc4ccc(C)o4)ccc3c(=O)c2cc1OC
[6]
  IC50: > 100 µM (inactive)

## N#CC1(Nc2ccc(-c3ccc(NC4(C#N)CCCC4)cc3)cc2)CCCC1
[14]
  IC50: 10.3 µM (active)

## Cc1nonc1C(=O)N/N=C/c1ccc(O)cc1
[1]
  EC50: 0.172 µM (active)
[14]
  IC50: 95.6 µM (active)
[2]
  EC50: 0.916 µM (active)

## Cc1cc(S(=O)(=O)N2CCCC2)ccc1OCC(=O)N1CCOCC1
[10]
  EC50: > 120 µM (not active)
[11]
  EC50: > 120 µM (not active)
[12]
  EC50: > 120 µM (not active)

## Cc1nn(-c2ccccc2)c(O)c1/C=N/N(C)c1ccccc1
[14]
  IC50: 19.3 µM (active)

## COc1ccc(/C=N/NC(=O)CN2CCCCCCC2)c(C)c1C
[14]
  IC50: 139 µM (active)

## N#Cc1c(O)nsc1Nc1ccc(Cl)cc1
[14]
  IC50: 79.9 µM (active)

## Nc1ccc2c(c1)[nH]c(=O)c1cc(N)ccc12
[14]
  IC50: 10.9 µM (active)

## NS(=O)(=O)c1ccc(Nc2nc(-c3ccc(O)cc3)cs2)cc1
[14]
  IC50: 19.9 µM (active)
